Measured values as given in US8148391B2 (Cephalon, Inc., priority 2006, dated 2012).
pIC50: −log10 of the molar value. Where two headings read alike, the source gives them in different places.

Assays:
[1] = biological target: T1, c-Met (cytoplasmic domain) (Homo sapiens, UniProt P08581); experiment: c-Met Kinase Assay (same methods as for ALK, with modifications); assay type: biochemical
T1 construct: 10 ng/mL c-Met (cytoplasmic domain, Invitrogen Corporation #PV3143); purchased Invitrogen Corporation PV3143
Method in brief: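 Steps: coat wells with PLC-γ (10 μg/mL, Tris-buffered saline); add 10 ng/mL c-Met cytoplasmic domain to initiate; incubate 15 min, 37° C; detect phosphoproduct via Eu-N1 PT66 antibody.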

[2] = biological target: T2, baculovirus-expressed ALK (Homo sapiens, UniProt Q9UM73); experiment: ALK Kinase Assay (ELISA-type, time-resolved fluorescence); assay type: biochemical
T2 construct: host or cells: baculovirus expression system
Method in brief: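 Wells were coated with phospholipase C-γ at 10 μg/mL in Tris-buffered saline. Adding 30 ng/ml enzyme started the reaction, which ran at 37° C for 15 minutes before Eu-N1 PT66 antibody detection. Percent inhibition versus log10 concentration gave IC50 by variable-slope fit.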

[3] = c-Met kinase inhibition, 1 μM ATP, read-out: cMet Activity
[4] = ALK kinase inhibition, 1 μM ATP, read-out: ALK Activity
[5] = 1 μM ATP (Km level), read-out: cMet Activity (c-Met Kinase Inhibition, IC50)
[6] = 1 μM ATP (Km level), read-out: ALK Activity (ALK Kinase Inhibition, IC50)
[7] = c-Met kinase inhibition, 1 μM ATP (Km level), read-out: cMet Activity
[8] = ALK kinase inhibition, 1 μM ATP (Km level), read-out: ALK Activity
[9] = 1 μM ATP (Km level), 10 ng/mL c-Met, read-out: cMet Activity (c-Met kinase inhibition, IC50 class)
[10] = 1 μM ATP (Km level), 30 ng/ml ALK, 37° C., 15 minutes, read-out: ALK Activity (ALK kinase inhibition, IC50 class)

T2 sequence (Q9UM73 19-1620): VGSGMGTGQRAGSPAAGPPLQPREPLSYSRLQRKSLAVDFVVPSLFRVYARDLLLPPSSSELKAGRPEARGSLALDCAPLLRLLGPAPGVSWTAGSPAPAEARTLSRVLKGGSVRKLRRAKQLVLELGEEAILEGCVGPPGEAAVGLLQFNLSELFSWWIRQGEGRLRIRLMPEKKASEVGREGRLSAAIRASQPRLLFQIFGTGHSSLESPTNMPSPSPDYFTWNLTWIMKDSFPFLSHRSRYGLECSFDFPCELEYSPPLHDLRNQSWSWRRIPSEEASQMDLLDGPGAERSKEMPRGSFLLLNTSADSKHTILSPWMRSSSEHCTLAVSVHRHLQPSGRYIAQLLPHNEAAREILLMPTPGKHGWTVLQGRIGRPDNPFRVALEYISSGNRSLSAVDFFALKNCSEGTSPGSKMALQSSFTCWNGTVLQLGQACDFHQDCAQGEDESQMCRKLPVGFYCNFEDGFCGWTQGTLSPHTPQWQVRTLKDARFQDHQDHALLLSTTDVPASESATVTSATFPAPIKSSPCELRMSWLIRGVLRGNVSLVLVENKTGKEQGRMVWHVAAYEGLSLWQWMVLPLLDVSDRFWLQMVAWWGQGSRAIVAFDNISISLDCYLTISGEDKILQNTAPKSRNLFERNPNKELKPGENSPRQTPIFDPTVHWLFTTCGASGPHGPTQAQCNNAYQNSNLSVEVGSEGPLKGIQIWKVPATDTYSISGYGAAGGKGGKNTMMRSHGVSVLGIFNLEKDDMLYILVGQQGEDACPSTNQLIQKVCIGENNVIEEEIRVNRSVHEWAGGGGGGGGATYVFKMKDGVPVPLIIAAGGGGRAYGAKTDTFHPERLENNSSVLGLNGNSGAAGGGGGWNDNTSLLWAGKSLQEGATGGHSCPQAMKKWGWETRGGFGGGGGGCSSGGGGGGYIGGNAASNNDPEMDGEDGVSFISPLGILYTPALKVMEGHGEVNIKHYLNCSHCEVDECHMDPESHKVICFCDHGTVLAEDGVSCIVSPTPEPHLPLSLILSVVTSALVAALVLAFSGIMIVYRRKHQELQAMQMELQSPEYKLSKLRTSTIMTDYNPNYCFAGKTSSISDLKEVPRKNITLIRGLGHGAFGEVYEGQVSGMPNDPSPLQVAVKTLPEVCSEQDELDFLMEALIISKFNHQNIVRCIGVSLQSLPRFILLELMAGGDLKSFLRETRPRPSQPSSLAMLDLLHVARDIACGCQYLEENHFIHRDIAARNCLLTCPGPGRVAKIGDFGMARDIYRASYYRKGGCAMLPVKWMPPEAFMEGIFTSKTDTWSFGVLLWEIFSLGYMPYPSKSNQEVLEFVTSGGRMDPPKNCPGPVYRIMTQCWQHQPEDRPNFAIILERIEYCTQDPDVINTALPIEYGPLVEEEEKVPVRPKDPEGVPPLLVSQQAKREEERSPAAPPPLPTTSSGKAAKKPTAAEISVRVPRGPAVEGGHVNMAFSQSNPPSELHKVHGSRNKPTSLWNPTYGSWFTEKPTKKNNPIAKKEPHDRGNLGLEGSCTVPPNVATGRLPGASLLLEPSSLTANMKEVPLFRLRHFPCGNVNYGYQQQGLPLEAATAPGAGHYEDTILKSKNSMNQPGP
T1 sequence (P08581 956-1390 limits assumed): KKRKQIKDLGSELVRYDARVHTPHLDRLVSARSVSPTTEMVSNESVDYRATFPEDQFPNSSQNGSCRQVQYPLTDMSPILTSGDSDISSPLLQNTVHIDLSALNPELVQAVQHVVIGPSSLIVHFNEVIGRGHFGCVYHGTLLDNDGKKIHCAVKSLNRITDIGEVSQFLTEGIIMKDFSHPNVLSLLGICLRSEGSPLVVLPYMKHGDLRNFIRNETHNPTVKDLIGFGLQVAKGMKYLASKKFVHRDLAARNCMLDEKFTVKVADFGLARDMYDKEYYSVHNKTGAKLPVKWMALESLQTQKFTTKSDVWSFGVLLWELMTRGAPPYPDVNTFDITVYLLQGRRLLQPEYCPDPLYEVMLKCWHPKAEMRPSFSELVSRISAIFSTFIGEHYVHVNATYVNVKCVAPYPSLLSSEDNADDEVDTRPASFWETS

Row | pIC50 [1, 3] | pIC50 [2, 4] | pIC50 [1, 7] | pIC50 [2, 8] | Molecule | other results
1 | > 7.00 | 6.00 to 7.00 |  |  | CCN1CC(=O)Nc2cc(Nc3ncc(Cl)c(Nc4c(F)cccc4C(=O)NC)n3)ccc2C1 [Example 1863, 2-[5-Chloro-2-(4-ethyl-2-oxo-2,3,4,5-tetrahydro-1H-benzo[e][1,4]diazepin-8-ylamino)-pyrimidin-4-ylamino]-3-fluoro-N-methyl-benzamide] | 
2 |  |  |  |  | COc1ccc(Nc2nc(Nc3cc4c(cc3OC)CCN(CC(=O)N(C)C)CC4)ncc2Cl)c(-n2cccn2)c1 [Example 616, 2-{7-[5-Chloro-4-(4-methoxy-2-pyrazol-1-yl-phenylamino)-pyrimidin-2-ylamino]-8-methoxy-1,2,4,5-tetrahydro-benzo[d]azepin-3-yl}-N,N-dimethyl-acetamide] | pIC50 [1, 5]: < 5.00; pIC50 [2, 6]: > 7.00
3 |  |  | 6.00 to 7.00 | > 7.00 | CCN(CC)CCN1CCNC(=O)c2ccc(Nc3ncc(Cl)c(Nc4ccccc4C(=O)NC)n3)cc21 [Example 415, 2-{5-Chloro-2-[1-(2-diethylamino-ethyl)-5-oxo-2,3,4,5-tetrahydro-1H-benzo[e][1,4]diazepin-8-ylamino]-pyrimidin-4-ylamino}-N-methylbenzamide] | 
4 |  |  |  |  | COc1cc2c(cc1Nc1ncc(Cl)c(Nc3ccccc3S(=O)(=O)N(C)C)n1)CCN(C(CF)CF)CC2 [Example 1393, {5-Chloro-2-[3-(2-fluoro-1-fluoromethyl-ethyl)-8-methoxy-2,3,4,5-tetrahydro-1H-benzo[d]azepin-7-ylamino]-pyrimidin-4-ylamino}-N,N-dimethyl-benzenesulfonamide] | pIC50 [1, 9]: < 5.00; pIC50 [2, 10]: > 7.00
5 |  |  |  |  | CCN1CCN(CC)c2cc(Nc3ncc(Cl)c(Nc4ccc5c(c4)N(CC)CCN(CC)C5=O)n3)ccc2C1 [Example 722, 8-[5-Chloro-2-(1,4-diethyl-2,3,4,5-tetrahydro-1H-benzo[e][1,4]diazepin-8-ylamino)-pyrimidin-4-ylamino]-1,4-diethyl-1,2,3,4-tetrahydro-benzo[e][1,4]diazepin-5-one] | pIC50 [1, 5]: < 5.00; pIC50 [2, 6]: 6.00 to 7.00
6 |  |  | > 7.00 | > 7.00 | CNC(=O)c1ccccc1Nc1nc(Nc2ccc3c(c2)C(=O)NCCN3C)ncc1Cl [Example 428, 2-[5-Chloro-2-(1-methyl-5-oxo-2,3,4,5-tetrahydro-1H-benzo[e][1,4]diazepin-7-ylamino)-pyrimidin-4-ylamino]-N-methylbenzamide] | 
7 | 6.00 to 7.00 | > 7.00 |  |  | CNC(=O)c1cccc(Cl)c1Nc1nc(Nc2ccc3c(c2)CN(C)C(=O)CC3)ncc1Cl [Example 1805, 3-Chloro-2-[5-chloro-2-(2-methyl-3-oxo-2,3,4,5-tetrahydro-1H-benzo[c]azepin-8-ylamino)-pyrimidin-4-ylamino]-N-methyl-benzamide] | 
8 |  |  |  |  | CNC(=O)c1ccccc1Nc1nc(Nc2cc3c(cc2OC)CCC(NCCO)CC3)ncc1Cl (stereo not drawn) [Example 1092, 2-{5-Chloro-2-[7-(2-hydroxy-ethylamino)-3-methoxy-6,7,8,9-tetrahydro-5H-benzocyclohepten-2-ylamino]-pyrimidin-4-ylamino}-N-methyl-benzamide] | pIC50 [1, 9]: < 5.00; pIC50 [2, 10]: > 7.00
9 | > 7.00 | 5.00 to 6.00 |  |  | CNCc1ccccc1Nc1nc(Nc2ccc3c(c2)CN(C)C(=O)CC3)ncc1Cl [Example 1808, 8-[5-Chloro-4-(2-methylaminomethyl-phenylamino)-pyrimidin-2-ylamino]-2-methyl-1,2,4,5-tetrahydro-benzo[c]azepin-3-one] | 
10 | < 5.00 | > 7.00 |  |  | COc1cc2c(cc1Nc1ncc(Cl)c(N[C@H]3[C@@H](C(N)=O)[C@@H]4C=C[C@H]3C4)n1)CCN(CC(C)(C)O)CC2 [Example 1560, (1S,2S,3R,4R)-3-{5-Chloro-2-[3-(2-hydroxy-2-methyl-propyl)-8-methoxy-2,3,4,5-tetrahydro-1H-3-benzazepin-7-ylamino]-pyrimidin-4-ylamino}-bicyclo[2.2.1]hept-5-ene-2-carboxylic acid amide] | 
11 |  |  |  |  | COc1c(Nc2ncc(Cl)c(Nc3ccccc3-n3cccn3)n2)ccc2c1CCC(NCC(F)(F)F)CC2 (stereo not drawn) [Example 690, 5-Chloro-N*2*-[1-methoxy-7-(2,2,2-trifluoro-ethylamino)-6,7,8,9-tetrahydro-5H-benzocyclohepten-2-yl]-N*4*-(2-pyrazol-1-yl-phenyl)-pyrimidine-2,4-diamine] | pIC50 [1, 5]: < 5.00; pIC50 [2, 6]: 6.00 to 7.00
12 |  |  |  |  | CCN1C(=O)[C@H](NC(=O)COC)CCc2c1ccc(Nc1ncc(Cl)c(N[C@H]3[C@@H](C(N)=O)[C@@H]4C=C[C@H]3C4)n1)c2OC (single isomer, unassigned) [Example 1350] | pIC50 [1, 9]: < 5.00; pIC50 [2, 10]: > 7.00
13 |  |  | < 5.00 | > 7.00 | CCN1C(=O)CCCc2cc(Nc3ncc(Cl)c(N[C@@H]4[C@H]5CC[C@H](C5)[C@@H]4C(N)=O)n3)c(OC)cc21 (relative stereo) [Example 136, (2-exo,3-exo)-3-[5-Chloro-2-(1-ethyl-8-methoxy-2-oxo-2,3,4,5-tetrahydro-1H-benzo[b]azepin-7-ylamino)-pyrimidin-4-ylamino]-bicyclo[2.2.1]heptane-2-carboxylic acid amide] | 
14 |  |  |  |  | COc1cc2c(cc1Nc1ncc(Cl)c(N[C@H]3[C@@H](C(N)=O)[C@@H]4C=C[C@H]3C4)n1)CCN(CCS(C)(=O)=O)CC2 [Example 1128, (1S,2S,3R,4R)-3-{5-Chloro-2-[3-(2-methanesulfonyl-ethyl)-8-methoxy-2,3,4,5-tetrahydro-1H-benzo[d]azepin-7-ylamino]-pyrimidin-4-ylamino}-bicyclo[2.2.1]hept-5-ene-2-carboxylic acid amide] | pIC50 [1, 9]: < 5.00; pIC50 [2, 10]: > 7.00
15 | < 5.00 | > 7.00 |  |  | COc1cc2c(cc1Nc1ncc(Cl)c(N[C@@H]3CCCC[C@H]3NS(C)(=O)=O)n1)CCN(CCN1CCOCC1)CC2 [Example 1533, N-((1R,2R)-2-{5-Chloro-2-[8-methoxy-3-(2-morpholin-4-yl-ethyl)-2,3,4,5-tetrahydro-1H-3-benzazepin-7-ylamino]-pyrimidin-4-ylamino}-cyclohexyl)-methanesulfonamide] | 
16 |  |  | < 5.00 | > 7.00 | COc1cc2c(cc1Nc1ncc(Cl)c(Nc3ccc(N4CCOCC4)cc3OC)n1)N(C)CCNC2 [Example 493, 5-Chloro-N*2*-(7-methoxy-1-methyl-2,3,4,5-tetrahydro-1H-benzo[e][1,4]diazepin-8-yl)-N*4*-(2-methoxy-4-morpholin-4-yl-phenyl)-pyrimidine-2,4-diamine] | 
17 | 5.00 to 6.00 | > 7.00 |  |  | CNC(=O)c1ncccc1Nc1nc(Nc2ccc3c(c2)CC(=O)N(C)CC3)ncc1Cl [Example 1820, 3-[5-Chloro-2-(3-methyl-4-oxo-2,3,4,5-tetrahydro-1H-benzo[d]azepin-7-ylamino)-pyrimidin-4-ylamino]-pyridine-2-carboxylic acid methylamide] | 
18 |  |  | 5.00 to 6.00 | 6.00 to 7.00 | COCCN1CCc2ccc(Nc3ncc(Cl)c(NC(C)CNS(C)(=O)=O)n3)cc2CC1 (stereo not drawn) [Example 303, N-(2-{5-Chloro-2-[3-(2-methoxy-ethyl)-2,3,4,5-tetrahydro-1H-benzo[d]azepin-7-ylamino]-pyrimidin-4-ylamino}-propyl)-methanesulfonamide] | 
19 |  |  | > 7.00 | > 7.00 | CNC(=O)c1cccc(F)c1Nc1nc(Nc2ccc3c(c2)CCN(C[C@@H](O)C(F)(F)F)CC3)ncc1Cl [Example 332, 2-{5-Chloro-2-[3-((R)-3,3,3-trifluoro-2-hydroxy-propyl)-2,3,4,5-tetrahydro-1H-benzo[d]azepin-7-ylamino]-pyrimidin-4-ylamino}-3-fluoro-N-methyl-benzamide] | 
20 | > 7.00 | > 7.00 |  |  | CNC(=O)c1c(F)cccc1Nc1nc(Nc2ccc3c(c2)CCOC(=O)N3C)ncc1Cl [Example 1756, 2-[5-Chloro-2-(5-methyl-6-oxo-5,6,8,9-tetrahydro-7-oxa-5-aza-benzocyclohepten-2-ylamino)-pyrimidin-4-ylamino]-6-fluoro-N-methyl-benzamide] | 
21 |  |  |  |  | Cc1cccnc1-c1ccccc1Nc1nc(Nc2ccc3c(c2)CCC(O)CC3)ncc1Cl (stereo not drawn) [Example 1021, 2-{5-Chloro-4-[2-(3-methyl-pyridin-2-yl)-phenylamino]-pyrimidin-2-ylamino}-6,7,8,9-tetrahydro-5H-benzocyclohepten-7-ol] | pIC50 [1, 9]: 5.00 to 6.00; pIC50 [2, 10]: 6.00 to 7.00
22 | 5.00 to 6.00 | > 7.00 |  |  | CC1(C)CCC(=O)Nc2cc(Nc3ncc(Cl)c(Nc4ccc(N5CCOCC5)cc4OCCC#N)n3)ccc21 [Example 1690, 3-{2-[5-Chloro-2-(5,5-dimethyl-2-oxo-2,3,4,5-tetrahydro-1H-benzo[b]azepin-8-ylamino)-pyrimidin-4-ylamino]-5-morpholin-4-yl-phenoxy}-propionitrile] | 

Row | Molecule | pIC50 [1, 3] | pIC50 [2, 4] | pIC50 [1, 7] | pIC50 [2, 8] | other results
23 | CNC(=O)c1ccccc1Nc1nc(Nc2ccc3c(c2Br)C2CCC3CN(C(=O)C(F)(F)F)C2)ncc1Cl (stereo not drawn) [Example 297, 2-{2-[3-Bromo-10-(2,2,2-trifluoro-acetyl)-10-aza-tricyclo[6.3.2.0*2,7*]trideca-2,4,6-trien-4-ylamino]-5-chloro-pyrimidin-4-ylamino}-N-methyl-benzamide] |  |  | < 5.00 | 6.00 to 7.00 | 
24 | N-{(1R,2R)-2-[2-(12-sec-Butyl-12-aza-tricyclo[7.2.1.0*2,7*]dodeca-2(7),3,5-trien-4-ylamino)-5-chloro-pyrimidin-4-ylamino]-cyclohexyl}-methanesulfonamide [Example 85] |  |  | 6.00 to 7.00 | > 7.00 | 
